Reference: patent US20260297065A1, “AROMATIC SUBSTITUENT-CONTAINING (HETERO) ARYL-IMIDAZOLE COMPOUND, AND PREPARATION METHOD THEREFOR AND USE THEREOF” (OPEN SOURCE THERAPEUTICS, priority 2022, published 2026)

The compounds below were run against T1, soluble epoxide hydrolase (sEH) (Homo sapiens, UniProt P34913) (assay: in vitro biochemical activity test, sEH enzyme inhibition with EET substrate (LC-MS)). Conditions: 90 min pre-incubation at room temperature, 60 min reaction.
T1 sequence (P34913 1-555): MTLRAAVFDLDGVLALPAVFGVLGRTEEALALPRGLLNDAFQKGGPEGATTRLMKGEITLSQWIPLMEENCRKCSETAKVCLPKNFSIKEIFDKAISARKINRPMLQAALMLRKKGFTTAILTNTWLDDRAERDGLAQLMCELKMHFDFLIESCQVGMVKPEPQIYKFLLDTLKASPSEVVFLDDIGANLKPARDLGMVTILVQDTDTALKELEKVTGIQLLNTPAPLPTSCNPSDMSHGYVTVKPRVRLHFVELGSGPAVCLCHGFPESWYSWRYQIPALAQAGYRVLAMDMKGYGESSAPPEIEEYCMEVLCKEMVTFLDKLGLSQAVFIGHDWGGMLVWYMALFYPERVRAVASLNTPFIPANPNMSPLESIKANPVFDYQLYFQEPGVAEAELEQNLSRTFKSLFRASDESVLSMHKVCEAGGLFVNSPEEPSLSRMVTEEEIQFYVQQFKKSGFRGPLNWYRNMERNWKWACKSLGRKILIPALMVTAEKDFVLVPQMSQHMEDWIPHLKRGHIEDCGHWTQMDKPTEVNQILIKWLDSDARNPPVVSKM
Method: This example relates to the relationship between the structure and activity of (hetero)aryl imidazole compounds containing an aromatic substituent. Specifically, the biochemical activity of the (hetero)aryl imidazole compounds containing an aromatic substituent described in Example 1 as sEH enzyme inhibitors was evaluated by in vitro activity test experiments.
The experimental procedures for evaluating in vitro biochemical activity were described below.
The substrate used in the evaluation experiment was epoxyeicosatrienoic acid (EET). The solutions used in the evaluation experiments were Bis/Tris HCl 25 mM pH 7.0, Bis/Tris HCl 25 mM pH 7.0 containing 0.1 mg/mL BSA was used as buffer A, and Bis/Tris HCl 25 mM pH 7.0 containing 36.3 mM ZnSO4 was used as buffer B.
The specific steps of the evaluation experiment were as follows. 79 μL of buffer A was added to each well in a black 96-well plate and then 1 μL solution of the aromatic substituent-containing (hetero)aryl imidazole compound was added. Then, 10 μL sEH (1 μM) buffer A solution was added to the wells. After pre-incubation at room temperature for 90 min, 10 μL EET (10 μM) buffer A solution was added to trigger the reaction. After the mixture was allowed to react […] for 60 min, 15 μL buffer B and 180 μL acetonitrile were added to quench the reaction, followed by high-speed centrifugation and filtration for later use.
LC-MS was used to detect the concentration of EET in the samples. The final IC50 was calculated based on three independent experiments using Graphpad Prism software.

Row | Compound | IC50
1 | Cc1nc(N)ncc1-c1cc2nc(-c3ccc(S(=O)(=O)N(C)C)cc3)[nH]c2c(F)c1Cl [Compound 31, 4-(6-(2-amino-4-methylpyr-imid-5-yl)-5-chloro-4-fluoro-1H-benzo[d]imidazol-2-yl)-N,N-dimethylbenzenesulfon-amide] | 0.085 nM
2 | COc1nc(C)ncc1-c1cc2nc(-c3ccc(S(=O)(=O)N(C)C)cc3)[nH]c2cc1F [Compound 32, 4-(5-fluoro-6-(4-methoxy-2-methylpyrimid-5-yl)-1H-benzo[d]imidazol-2-yl)-N,N-dimethylbenzenesulfonamide] | 0.13 nM
3 | CN(C)S(=O)(=O)c1ccc(-c2nc3cc(-c4cncnc4C(F)(F)F)c(F)cc3[nH]2)cc1 [Compound 33, 4-(5-fluoro-6-(4-(trifluoro-methyl)pyrimid-5-yl)-1H-benzo [d]imidazol-2-yl)-N,N-dimeth-ylbenzenesulfonamide] | 0.15 nM
4 | CC(C)c1nc(N)ncc1-c1cc2nc(-c3ccc(S(=O)(=O)N(C)C)cc3)[nH]c2cc1F [Compound 34, 4-(6-(2-amino-4-isopropyl-pyrimid-5-yl)-5-fluoro-1H-benzo[d]imidazol-2-yl)-N,N-dimethylbenzenesulfonamide] | 0.058 nM
5 | Cc1nc(N)ncc1-c1cc2nc(-c3ccc(S(=O)(=O)N(C)C)cc3)[nH]c2c(Cl)c1F [Compound 35, 4-(6-(2-amino-4-methylpyr-imid-5-yl)-4-chloro-5-fluoro-1H-benzo[d]imidazol-2-yl)-N,N-dimethylbenzenesulfon-amide] | 0.045 nM
6 | Cc1cc(F)ncc1-c1cc2nc(-c3ccc(S(N)(=O)=O)cc3)[nH]c2cc1F [Compound 36, 4-(5-fluoro-6-(6-fluoro-4-methylpyridin-3-yl)-1H-benzo [d]imidazol-2-l)benzenesulfon-amide] | 0.54 nM
7 | CNS(=O)(=O)c1ccc(-c2nc3cc(-c4cnc(F)cc4C)c(F)cc3[nH]2)cc1 [Compound 37, 4-(5-fluoro-6-(6-fluoro-4-methylpyridin-3-yl)-1H-benzo [d]imidazol-2-yl)-N-methyl-benzenesulfonamide] | 0.38 nM
8 | CN(C)S(=O)(=O)c1ccc(-c2nc3cc(-c4ccnn4C(C)(C)F)c(F)cc3[nH]2)cc1 [Compound 38, 4-(5-fluoro-6-(1-(2-fluoropro-pan-2-yl)-1H-pyrazol-5-yl)-1H-benzo[d]imidazol-2-yl)-N,N-dimethylbenzenesulfon-amide] | 0.045 nM
9 | COc1cc(C)c(-c2cc3nc(-c4ccc(S(=O)(=O)N(C)C)cc4)[nH]c3cc2F)cn1 [Compound 39, 4-(5-fluoro-6-(6-methoxy-4-methylpyridin-3-yl)-1H-benzo [d]imidazol-2-yl)-N,N-dimeth-ylbenzenesulfonamide] | 0.088 nM
10 | CN(C)S(=O)(=O)c1ccc(-c2nc3cc(-c4cnc(N)cc4Cl)c(F)cc3[nH]2)cc1 [Compound 40, 4-(6-(6-amino-4-chloropyr-idin-3-yl)-5-fluoro-1H-benzo [d]imidazol-2-yl)-N,N-dimeth-ylbenzenesuIfonamide] | 0.063 nM
11 | Cc1[nH]c(=O)ccc1-c1cc2nc(-c3ccc(S(=O)(=O)N(C)C)cc3)[nH]c2cc1F [Compound 41, 4-(5-fluoro-6-(2-methyl-6-oxo-1,6-dihydropyridin-3-yl)-1H-benzo[d]imidazol-2-yl)-N,N-dimethylbenzenesulfon-amide] | 0.23 nM
12 | Cc1nc(N)ncc1-c1cc2[nH]c(-c3ccc(C(F)(F)F)cc3)nc2cc1F [Compound 42, 5-(5-fluoro-2-(4-(trifluoro-methyl)phenyl)-1H-benzo[d]imidazol-6-yl)-4-methylpyrim-idine-2-amine] | 0.14 nM
13 | Cc1nc(N)ncc1-c1cc2[nH]c(-c3ccc(C(F)F)cc3)nc2c(F)c1F [Compound 44, 5-(2-(4-(difluoromethyl)phen-yl)-4,5-difluoro-1H-benzo[d]imidazol-6-yl)-4-methylpyr-imidine-2-amine] | 0.096 nM

More lines, now with the values ahead:

Row | IC50 | Compound
14 | 0.033 nM | Cc1cc(N)ncc1-c1cc2[nH]c(-c3ccc(S(=O)(=O)N(C)C)cc3)nc2c(F)c1F [Compound 45, 4-(6-(6-amino-4-methylpyr-idin-3-yl)-4,5-difluoro-1H-benzo[d]imidazol-2-yl)-N,N-dimethylbenzenesulfonamide]
15 | 0.042 nM | Nc1ncc(-c2cc3[nH]c(-c4ccc(C(F)F)cc4)nc3c(F)c2F)c(C(F)F)n1 [Compound 46, 4-(difluoromethyl)-5-(2-(4-(difluoromethyl)phenyl)-4,5-difluoro-1H-benzo[d]imid-azol-6-yl)pyrimidine-2-amine]
16 | 0.036 nM | CC(C)c1ncncc1-c1cc2[nH]c(-c3ccc(S(=O)(=O)N(C)C)cc3)nc2cc1F [Compound 47, 4-(5-fluoro-6-(4-isopropyl-pyrimid-5-yl)-1H-benzo[d]imidazol-2-yl)-N,N-dimethyl-benzenesulfonamide]
17 | 0.016 nM | CN(C)S(=O)(=O)c1ccc(-c2nc3cc(F)c(-c4cnc(N)nc4C(F)F)cc3[nH]2)cc1 [Compound 51, 4-(6-(4-(difluoromethyl)-2-aminopyrimid-5-yl)-5-fluoro-1H-benzo[d]imidazol-2-yl)-N,N-dimethylbenzenesulfon-amide]
18 | 0.1 nM | Cc1ccncc1-c1cc2[nH]c(-c3ccc(S(=O)(=O)N(C)C)cc3)nc2cc1F [Compound 55, 4-(6-(4-methylpyridin-3-yl)-5-fluoro-1H-benzo[d]imidazol-2-yl)-N,N-dimethylbenzene-sulfonamide]
19 | 0.036 nM | CN(C)S(=O)(=O)c1ccc(-c2nc3c(F)c(F)c(-c4cnc(N)cc4Cl)cc3[nH]2)cc1 [Compound 57, 4-(6-(6-amino-4-chloropyri-din-3-yl)-4,5-difluoro-1H-benzo[d]imidazol-2-yl)-N,N-dimethylbenzenesulfonamide]
20 | 0.057 nM | CC(C)n1nc(N)cc1-c1cc2[nH]c(-c3ccc(S(=O)(=O)N(C)C)cc3)nc2cc1F [Compound 60, 4-(6-(1-isopropyl-3-amino-1H-pyrazol-5-yl)-5-fluoro-1H-benzo[d]imidazol-2-yl)-N,N-dimethylbenzenesulfonamide]
21 | 0.089 nM | Nc1ncc(-c2cc3[nH]c(-c4ccc(C(F)(F)F)cc4)nc3c(F)c2F)c(C(F)F)n1 [Compound 68, 5-(2-(4-(trifluoromethyl)phen-yl)-4,5-difluoro-1H-benzo[d]-imidazol-6-yl)-4-(difluoro-methyl)pyrimidine-2-amine]
22 | 0.77 nM | CC(C)n1ccnc1-c1cc2[nH]c(-c3ccc(C(F)(F)F)cc3)nc2c(F)c1F [Compound 72, 2-(4-(trifluoromethyl)phenyl)-6-(1-isopropyl-1H-imidazol-2-yl)-4,5-difluoro-1H-benzo[d] imidazole]
23 | 0.17 nM | Fc1c(-c2cnc(N3CCOCC3)nc2C(F)F)cc2[nH]c(-c3ccc(C(F)(F)F)cc3)nc2c1F [Compound 74]
24 | 0.081 nM | Fc1c(-c2ccnn2C2CC2)cc2[nH]c(-c3ccc(C(F)(F)F)cc3)nc2c1F [Compound 75, 2-(4-(trifluoromethyl)phenyl)-6-(1-cyclopropyl-1H-pyrazol-5-yl)-4,5-difluoro-1H-benzo [d]imidazole]
25 | 0.081 nM | Cc1nn(C(F)F)cc1-c1cc2[nH]c(-c3ccc(C(F)(F)F)cc3)nc2c(F)c1F [Compound 76, 2-(4-(trifluoromethyl)phenyl)-6-(3-methyl-1-(difluorometh-yl)-1H-pyrazol-4-yl)-4,5-difluoro-1H-benzo[d]imidazole]
26 | 0.047 nM | Nc1cc(C(F)F)c(-c2cc3[nH]c(-c4ccc(C(F)(F)F)cc4)nc3c(F)c2F)cn1 [Compound 77, 2-(4-(trifluoromethyl)phenyl)-6-(4-(difluoromethyl)-6-amino-pyridin-3-yl)-4,5-difluoro-1H-benzo[d]imidazole]
27 | 0.15 nM | Nc1ncc(-c2cc3[nH]c(-c4ccc(F)c(C(F)(F)F)c4)nc3c(F)c2F)c(C(F)F)n1 [Compound 81, 5-(2-(3-(trifluoromethyl)-4-fluorophenyl)-4,5-difluoro-1H-benzo[d]imidazol-6-yl)-4-(difluoromethyl)pyrimidine-2-amine]
